Data: patent US20250129086A1, “COMPOUND FOR DEGRADING EGFR PROTEIN AND USE THEREOF” (TYK MEDICINES, INC., priority 2021, published 2025)

What was measured:
Type in all cases: cell-based, human
[1] = system: H1975 (EGFR L858R/T790M double mutation); assay: Cell antiproliferative assay (CTG, 72 h), H1975; details: Homo sapiens
Description: (§1) Test Example 1 Cell Antiproliferative Assay
(§2) H1975: with EGFR: L858R/T790M double mutation; PC-9 with EGFR exon 19 deletion, HCC827 with exon 19 deletion mutation. CellCounting-Lite2.0, Trypsin EDTA, 37° C. CO2 incubator, cell counter, EnVision Serial No.1050454. II. Experimental preparation:
(§3) • (A) Trypsin EDTA was used to digest log-phase cells, medium was added to terminate the reaction, and a cell suspension was made by blowing and mixing with a pipette. • (B) Cell concentration was determined using Vi-cell, and a suspension of 15,000-25,000 cells per milliliter was made depending on the purpose of the experiment and the characteristics of the cells. • (C) After the cell suspension was prepared, it was gently mixed and 100 microliters per well was added so that the density of cells to be tested was 1500-2500 per well.
(§4) • (A) About 2 mg of compound was weighed, and the volume of DMSO required was calculated according to the formula: compound mass (mg)*compound purity (%)/compound molecular weight*1000 • (B) The inoculated cell culture plates were incubated in an incubator and the compounds with concentration gradient were added after about 24 hours. • (C)10 Mm of compound stock solution was diluted to […] with medium, and 50 Mm of compound solution was added sequentially to the second column of the deep-well plate, and […] of medium containing 0.5% DMSO was added to the third to eleventh columns. • (D) Gradient dilution: 125 μl of solution was pipetted from the second column and added to the third column, after mixing; another 125 μl of solution was pipetted from the third column and added to the fourth column, and the operation was repeated until the tenth column. • (E)25 μl of compound was pipetted from the deep-well plate into a 96-well culture plate using a multichannel pipette, and each compound was repeated three times on the 96-well plate. A maximum concentration of 10,000 nm with concentration gradient of 1:4 was eventually formed on the 96-well plate.
(§5) • (A)96-well plates were incubated in an incubator for 72 h. The effect of the compounds was observed under an inverted microscope. • (B)25 μl of CTG solution was added to each well, the plate was put on shaker for 10 minutes and the […] of each well was read.
(§6) The cell viability rate (% Cell Viability) was calculated using the following formula: • % Cell Viability=100%×(Lum_Sample-Lum_LC)/(Lum_HC-Lum_LC) • Lum_HC: Cell reading of 0.1% DMSO control • Lum_Sample: Cell reading with compound added • Lum_LC: Reading of Blank media • IC50 values were obtained by curve fitting with GraphPad Prism 8 software.

[2] = system: PC-9 (EGFR exon 19 deletion); assay: Cell antiproliferative assay (CTG, 72 h), PC-9; details: Homo sapiens, Table 2, PC-9 cells
Description: as §1, §2, §3, §4, §5, §6

[3] = system: HCC827 (exon 19 deletion mutation); assay: Cell antiproliferative assay (CTG, 72 h), HCC827; details: Homo sapiens, Table 2, HCC827 cells
Description: as §1, §2, §3, §4, §5, §6

[4] = NCI-H1975, 72 h, Table 2, H1975 cells

Row | SMILES | IC50 [1, 4] [nM] | IC50 ([2]; PC-9, 72 h) [nM] | IC50 ([3]; HCC827, 72 h) [nM] | IC50 ([1]; NCI-H1975, Table 2, H1975 cells) [nM] | IC50 [2] [nM] | IC50 [3] [nM]
1 | COc1cc(N2CCN(C(=O)CN3CCC(c4ccc(NC5CCC(=O)NC5=O)cc4)CC3)C(C)C2)ccc1Nc1ncc(Cl)c(Nc2ccccc2)n1 (stereo not drawn) [Compound T-124] | 100 to 1000 | ≥ 1000 | ≥ 1000 | – | – | –
2 | COc1cc(N2CCN(C(=O)CN3CCC(c4ccc(NC5CCC(=O)NC5=O)cc4)CC3)CC2)ccc1Nc1ncc(Cl)c(Nc2cc(F)ccc2F)n1 (stereo not drawn) [Compound T-132] | 100 to 1000 | ≥ 1000 | 100 to 1000 | – | – | –
3 | COc1cc(N2CCN(C(=O)CN3CCC(c4ccc(NC5CCC(=O)NC5=O)cc4)CC3)CC2)ccc1Nc1ncc(Cl)c(Nc2cccc(C#N)c2)n1 (stereo not drawn) [Compound T-134] | 10 to 100 | ≥ 1000 | ≥ 1000 | – | – | –
4 | COc1cc(N2CCN(C(=O)CN3CCC(c4ccc(NC5CCC(=O)NC5=O)cc4)CC3)CC2)ccc1Nc1ncc(C(F)(F)F)c(-c2cn(C)c3ccccc23)n1 (stereo not drawn) [Compound T-135] | 100 to 1000 | ≥ 1000 | 100 to 1000 | – | – | –
5 | COc1cc(N2CCN(C(=O)CN3CCC(c4ccc(NC5CCC(=O)NC5=O)cc4)CC3)CC2)ccc1Nc1ncc(Cl)c(Nc2ccccc2C#N)n1 (stereo not drawn) [Compound T-139] | 100 to 1000 | ≥ 1000 | 100 to 1000 | – | – | –
6 | O=C1CCC(Nc2ccc(C3CCN(CC(=O)N4CCN(c5ccc(-c6cc(F)c7c(c6)C(=O)N(C(C(=O)Nc6nccs6)c6ccccc6F)C7)cc5)CC4)CC3)cc2)C(=O)N1 (stereo not drawn) [Compound T-140] | 10 to 100 | 100 to 1000 | 100 to 1000 | – | – | –
7 | COc1cc(N2CCN(C(=O)CN3CCC(c4ccc(NC5CCC(=O)NC5=O)cc4)CC3)CC2)ccc1Nc1ncc(Cl)c(Nc2ccccc2OC(=O)N(C)C)n1 (stereo not drawn) [Compound T-152] | – | – | – | 100 to 1000 | ≥ 1000 | ≥ 1000
8 | COc1cc(N2CCC[C@H](NC(=O)CN3CCC(c4ccc(NC5CCC(=O)NC5=O)cc4)CC3)C2)ccc1Nc1ncc(Cl)c(Nc2ccccc2C(C)=O)n1 (stereo partly drawn) [Compound T-166] | 100 to 1000 | ≥ 1000 | ≥ 1000 | – | – | –
9 | COc1cc(N2CCC[C@H](N(C)CN3CCC(c4ccc(NC5CCC(=O)NC5=O)cc4)CC3)C2)ccc1Nc1ncc(Cl)c(Nc2ccccc2C(C)=O)n1 (stereo partly drawn) [Compound T-167] | 100 to 1000 | ≥ 1000 | ≥ 1000 | – | – | –
10 | COc1cc(N2CC(N(C)C(=O)CN3CCC(c4ccc(NC5CCC(=O)NC5=O)cc4)CC3)C2)ccc1Nc1ncc(Cl)c(Nc2ccccc2C(C)=O)n1 (stereo not drawn) [Compound T-170] | 100 to 1000 | ≥ 1000 | ≥ 1000 | – | – | –
11 | COc1cc(N2CC[C@@H](N(C)C(=O)CN3CCC(c4ccc(NC5CCC(=O)NC5=O)cc4)CC3)C2)ccc1Nc1ncc(Cl)c(Nc2ccccc2C(C)=O)n1 (stereo partly drawn) [Compound T-171] | 10 to 100 | ≥ 1000 | 100 to 1000 | – | – | –
12 | COc1cc(N2CC[C@@H](NC(=O)CN3CCC(c4ccc(NC5CCC(=O)NC5=O)cc4)CC3)C2)ccc1Nc1ncc(Cl)c(Nc2ccccc2C(C)=O)n1 (stereo partly drawn) [Compound T-173] | 100 to 1000 | ≥ 1000 | 100 to 1000 | – | – | –
13 | COc1cc(N2CC[C@H](NC(=O)CN3CCC(c4ccc(NC5CCC(=O)NC5=O)cc4)CC3)C2)ccc1Nc1ncc(Cl)c(Nc2ccccc2C(C)=O)n1 (stereo partly drawn) [Compound T-174] | 100 to 1000 | ≥ 1000 | ≥ 1000 | – | – | –
14 | CC(=O)c1ccccc1Nc1nc(Nc2ccc(N3CCN(C(=O)CN4CCC(c5ccc(NC6CCC(=O)NC6=O)cc5)CC4)CC3)cc2OC(C)C)ncc1Cl (stereo not drawn) [Compound T-179] | 100 to 1000 | ≥ 1000 | ≥ 1000 | – | – | –
15 | C=CC(=O)Nc1cc(Nc2ncc(C(F)(F)F)c(Nc3ccccc3)n2)c(OC)cc1N(C)CCN(C)C(=O)CN1CCC(c2ccc(NC3CCC(=O)NC3=O)cc2)CC1 (stereo not drawn) [Compound T-180] | 100 to 1000 | ≥ 1000 | ≥ 1000 | – | – | –
16 | COc1cc(N2CCN(C(=O)CN3CCC(c4cccc(NC5CCC(=O)NC5=O)c4)CC3)CC2)ccc1Nc1ncc(Cl)c(Nc2ccccc2C(C)=O)n1 (stereo not drawn) [Compound T-181] | 100 to 1000 | 100 to 1000 | ≥ 1000 | – | – | –
17 | COc1cc(N2CC3CN(C(=O)CN4CCC(c5ccc(NC6CCC(=O)NC6=O)cc5)CC4)CC3C2)ccc1Nc1ncc(Cl)c(Nc2ccccc2C(C)=O)n1 (stereo not drawn) [Compound T-188] | 10 to 100 | 100 to 1000 | 100 to 1000 | – | – | –
18 | COc1cc(N2C[C@H]3CN(C(=O)CN4CCN(c5ccc(NC6CCC(=O)NC6=O)cc5)CC4)C[C@H]3C2)ccc1Nc1ncc(Cl)c(Nc2ccccc2C(C)=O)n1 (stereo partly drawn) [Compound T-189] | 10 to 100 | 100 to 1000 | 100 to 1000 | – | – | –
19 | COc1cc(N2CCN(C(=O)CN3CCC(c4ccccc4NC4CCC(=O)NC4=O)CC3)CC2)ccc1Nc1ncc(Cl)c(Nc2ccccc2C(C)=O)n1 (stereo not drawn) [Compound T-193] | 100 to 1000 | 100 to 1000 | 100 to 1000 | – | – | –
20 | COc1cc(N2CCN(C(=O)CN3CCC(c4ccc(NC5CCC(=O)NC5=O)cc4)CC3)CC2)ccc1Nc1ncc(Cl)c(Nc2ccccc2NC(C)=O)n1 (stereo not drawn) [Compound T-195] | 10 to 100 | 100 to 1000 | 100 to 1000 | – | – | –
21 | COc1cc(N2CCN(C(=O)CN3CCC(c4ccc(NC5CCC(=O)NC5=O)cc4)CC3)CC2)ccc1Nc1ncc(Cl)c(Nc2ccccc2C(C)(C)O)n1 (stereo not drawn) [Compound T-196] | 10 to 100 | 100 to 1000 | 100 to 1000 | – | – | –
22 | COc1cc(N2CCN(C(=O)CN3CCC(c4ccc(NC5CCC(=O)NC5=O)cc4)CC3)CC2)ccc1Nc1ncc(Cl)c(Nc2ccc(F)cc2C(C)(C)O)n1 (stereo not drawn) [Compound T-199] | 10 to 100 | 100 to 1000 | 100 to 1000 | – | – | –
23 | COc1cc(N2CCN(C(=O)CN3CCC(c4ccc(NC5CCC(=O)NC5=O)cc4)CC3)CC2)ccc1Nc1ncc(Cl)c(Nc2ccccc2OC)n1 (stereo not drawn) [Compound T-200] | 10 to 100 | 100 to 1000 | 100 to 1000 | – | – | –
24 | COc1cc(N2CCN(CCC3CCN(c4ccc5c(c4)C(=O)N(C4CCC(=O)NC4=O)C5=O)CC3)CC2)ccc1Nc1ncc(Cl)c(Nc2ccccc2C(C)=O)n1 (stereo not drawn) [Compound T-212] | 100 to 1000 | ≥ 1000 | 100 to 1000 | – | – | –
25 | COc1cc(OC2CCN(C(=O)CN3CCC(c4ccc(NC5CCC(=O)NC5=O)cc4)CC3)CC2)ccc1Nc1ncc(Cl)c(Nc2ccccc2C(C)=O)n1 (stereo not drawn) [Compound T-214] | 100 to 1000 | ≥ 1000 | 100 to 1000 | – | – | –
26 | COc1cc(N2CCN(C(=O)CN3CCC(c4ccc(NC5CCC(=O)NC5=O)cc4)CC3)CC2)ccc1Nc1ncc(Cl)c(Nc2ccccc2NS(C)(=O)=O)n1 (stereo not drawn) [Compound T-218] | 10 to 100 | 100 to 1000 | 10 to 100 | – | – | –
